Test results: US12036228B2, “Treatment of seizure disorders” (Shackelford Pharma Inc., priority 2022, dated 2024)

Experiments:
[1] = test system: seizures in human patient; assay: Example 3 human patient, GTC and complex partial seizures; assay type: in vivo
Source text: A patient first started having GTC and complex partial (CP) seizures. […] The patient was referred for evaluation for initiation of cannabinoid/THC treatment in March 2014.

[2] = test system: seizures / EEG abnormalities in human patient; assay: Example 8 pediatric patient with atonic seizures, myoclonic seizures and Doose syndrome (24 hour EEG, seizures); assay type: in vivo; conditions: CBD transdermal patches
Method: They had continued to experience several seizures per day of all types despite multiple combination regimens of prescription anti-seizure medications and a trial of THC-A transdermal patch and CBD (Charlotte's Web) oral tincture and CBD transdermal patches up until the day they were first evaluated for cannabinoid treatment (age 4.5 on Mar. 8, 2016). […] They were then prescribed 1 mg oral THC tincture three times per day. On Mar. 8, 2018, the patient returned for follow-up where it was learned that all cannabinoids had been discontinued. […] The THC-A transdermal patch was restarted at 1.875 mg/day with a reduction in EEG abnormalities to 400/24 hours. Oral THC 2.5 mg BID was then restarted with a further reduction in EEG abnormalities to 20/24 hours. […] Due to the significant reduction in brain pre-seizure activity after restarting THC and concerns that there are effective dosage variations among transdermal products, the patient was then prescribed oral THC 2.5 mg BID which they continue to take.

[3] = test system: GTC seizures in human patients; assay: THC treatment of several human patients with GTC seizures (responder rate, one-year remission rate, adverse effects); assay type: in vivo
Source text: Several human patients commenced treatment with THC after a first visit. More details about the treatment are provided below. The group included 82 total adult patients and 12 total pediatric patients. Of those 94 patients, 34 adult patients and 10 pediatric patients had experienced at least one GTC seizure in the year preceding the first visit. At the time of first visit, 14 of the 34 adult patients and 8 of the 10 pediatric patients had never taken THC. At the time of first visit, five of the 34 adult patients and two of the 10 pediatric patients were consistently/regularly taking THC. At the time of first visit, 15 of the 34 adult patients and none of the 10 pediatric patients were inconsistently/irregularly taking THC or had taken THC at some point in the past and were no longer taking THC.
At the time of first visit, 16 of the 34 adult patients had treatment resistant epilepsy, which means the patients had persistent GTC seizures despite taking two different anti-seizure medications at, or prior to, the first visit. At the time of first visit, all 10 of the pediatric patients had treatment resistant epilepsy.
The first visit means the date when the patient first saw the doctor for evaluation for THC treatment for GTC seizures. Responder rates means the percentage of patients that had at least a 50% reduction in GTC seizure frequency over a one-year treatment period with THC. One-year remission rate means the percentage of patients that experienced no GTC seizures in a one-year period after commencing THC treatment.
All of the 34 adult patients and 10 pediatric patients were taking other anti-seizure medications or had other anti-seizure treatment at the time of the first visit. […] Those anti-seizure medications and other anti-seizure treatments included: lamotrigine, topiramate, topiramate XR, vagus nerve stimulation, phenytoin, valproic acid, zonisamide, benzodiazepine, surgery, levetiracetam, carbamazepine, oxcarbazepine, lacosamide, perampanel, clonazepam, phenobarbial, pregabalin, gabapentin, rufinamide, CBD (e.g., Epidiolex), clobazam, and felbamate. Also, all patients who were using THC oral dosages were using products that included no CBD or products that included CBD in doses well below the therapeutic dose for Epidiolex.
THC Treatment for the 82 adult patients varied. Many of the patients smoked marijuana, so the dosage and/or timing of the dosage was unknown. Because CBD is delivered at sub-therapeutic levels when marijuana is smoked, it is acceptable to attribute any therapeutic effect to THC. The label for the CBD drug Epidiolex includes dosages starting at 5 mg/kg daily for all indications, and increasing to maintenance doses of 10 mg/kg or 20 mg/kg for Lennox-Gestault Syndrome and Dravet Syndrome, and increasing to maintenance doses of 25 mg/kg per day for Tuberous Sclerosis Complex. When 1 gram of cannabis is smoked, it delivers CBD to the lungs in doses well below the therapeutic dose levels prescribed for Epidiolex. Some other patients took unknown dosages of THC orally.

[4] = test system: Treatment Resistant Epilepsy patients; assay: EPIDIOLEX expanded access program (EAP), adults and pediatrics; assay type: in vivo, human; conditions: expected 5%
DS, LGS, TSC patients [5] = assay: EPIDIOLEX pediatric randomized controlled clinical trials (RCTs); assay type: in vivo, human; conditions: Ped. RCTs; expected 5%
[6] = test system: Treatment Resistant Epilepsy patients; conditions: EAP, cited from earlier work
DS, LGS, TSC patients [7] = conditions: Ped. RCTs, cited from earlier work
[8] = test system: GTC seizures in human patient; assay: Example 6 human patient, GTC and CPS seizures after temporal lobectomy; assay type: in vivo; conditions: re-introduction of lamotrigine (225 mg twice a day)
Method: A patient with a longstanding history of GTC and CPS seizures ([…]) was evaluated for surgical intervention and underwent a right temporal lobectomy in 2013. No seizure activity was experienced for 9 months; thereafter, seizures recurred with GTC seizures occurring one time per week requiring hospitalization.
The patient was first evaluated for cannabinoid treatment on Feb. 11, 2016, […] with their parents (caregivers). They were still experiencing approximately 1 GTC seizure per month at that time. On physical examination, their neurological system was grossly within normal limits. The patient's mentation was evaluated as slow, but they were responsive and fully oriented. At the time of this first visit, they had no previous exposure to cannabinoid treatment.

C=C(C)[C@@H]1CCC(C)=C[C@H]1c1c(O)cc(CCCCC)cc1O [CBD, cannabidiol]
effect on seizures ([1]; CBD patches and an oral CBD spray): no improvement in their seizures | effect on seizures ([1]; oral CBD 0.48 mg/kg, or 50 mg per day, along with topiramate): no improvement | effect on seizures [2]: worsened seizures in a dose-related fashion | seizure outcome, individual pediatric patient ([3]; CBD-only containing product, 134 mg CBD per day and no THC): frequent “violent” GTC seizures | seizure frequency and severity, individual pediatric patient ([3]; switched to 30 mg CBD only (2015)): seizure frequency and severity increased

C=C(C)[C@@H]1CCC(C)=C[C@H]1c1c(O)cc(CCCCC)cc1O [EPIDIOLEX ®]
Increase in 1 YR Seizure Remission Rate over expected [4]: ~2.2X | Increase in 1 YR Seizure Remission Rate over expected (DS, LGS, TSC patients [5]): ~1.4X | 1 YR Seizure Remission Rate ([6]; @48 wks): 11% @48 wks | Responder Rate ([6]; TRE, @48 wks): 53% @48 wks | Adverse Events [6]: 7% | 1 YR Seizure Remission Rate (DS, LGS, TSC patients [7]; @14 wks): 6-7% @14 wks | Responder Rate (DS, LGS, TSC patients [7]; DS, LGS, TSC, @ 14 wks): ~45% @ 14 | Adverse Events (DS, LGS, TSC patients [7]): Up to 12%

Nc1nnc(-c2cccc(Cl)c2Cl)c(N)n1 [lamotrigine]
effect on seizures ([1]; lamotrigine 60 mg twice daily): still having seizures | seizure frequency [8]: decreased to 1 GTC seizure about every month
